Our source for the IC50 values is patent US20250257064A1, “TRIFLUOROMETHYL-SUBSTITUTED SULFONAMIDE AS BCL-2-SELECTIVE INHIBITOR” (Chia Tai Tianqing Pharmaceutical Group Co., Ltd., priority 2018, published 2025).

The target in one assay is T1, BCL-XL/BAK (Homo sapiens, UniProt Q07817).
T1 construct: purchased Cisbio
As to the kind of experiment: Screening on inhibitory activity for BCL-XL/BAK binding (Cisbio HTRF kit). On the procedure:
1.2 Screening on Inhibitory Activity for BCL-XL/BAK Binding
300 nM Tag1-BCL-XL protein stock solution and 10 μM Tag2-BAK protein stock solution were diluted to 2 nM and 80 nM respectively with dilution buffer in kit (model: BCL-XL/BAK (BH3) BINDING ASSAY KITS, from Cisbio). 5 μL of Tag1-BCL-XL protein diluent was added to each well, then different compounds dissolved with DMSO were added to the wells with a nanoliter pipettor, allowing the final compound concentrations to be 2000 nM to 0.488 nM (4-fold gradient for 7 concentrations in total). Blank control wells (without enzyme) and negative control wells (with enzyme, plus vehicle DMSO) were set, and 2 replicate wells were set. Finally, 5 μL of Tag2-BAK protein diluent was added to each well, and the mixture was mixed well by centrifugation and incubated at 25° C. for 15 min. 100× anti-Tag1-Eu^3+ and 100× anti-Tag2-XL665 were both diluted to 1× working concentration with the detection buffer in the kit. Anti-Tag1-Eu^3+ and anti-Tag2-XL665 were mixed well in a 1:1 ratio, and the mixture was added to wells at 5 µL/well, and incubated at 25° C. for 2 h or more. The plate was read using a PE Envision multi-functional microplate reader (excitation: […], emission: 665 nm) and IC50 (shown in table 1) was calculated by four-parameter fitting.

The next assay concerns the target T2, BCL-2/BAK (Homo sapiens, UniProt P10415).
T2 construct: purchased Cisbio
As to the kind of experiment: Screening on inhibitory activity for BCL-2/BAK binding (Cisbio HTRF kit). On the procedure:
1.1 Screening on Inhibitory Activity for BCL-2/BAK Binding
500 nM Tag1-BCL-2 protein stock solution and 20 μM Tag2-BAK protein stock solution were diluted to 5 nM and 120 nM respectively with dilution buffer in kit (model: BCL-2/BAK (BH3) BINDING ASSAY KITS, from Cisbio). 5 μL of Tag1-BCL-2 protein diluent was added to each well, then different compounds dissolved with DMSO were added to the wells with a nanoliter pipettor, allowing the final compound concentrations to be 200 nM to 0.0488 nM (4-fold gradient for 7 concentrations in total). Blank control wells (without enzyme) and negative control wells (with enzyme, plus vehicle DMSO) were set, and 2 replicate wells were set. Finally, 5 μL of Tag2-BAK protein diluent was added to each well, and the mixture was mixed well by centrifugation and incubated at 25° C. for 15 min. 100× anti-Tag1-Eu^3+ and 100× anti-Tag2-XL665 were both diluted to 1× working concentration with the detection buffer in the kit. Anti-Tag1-Eu^3+ and anti-Tag2-XL665 were mixed well in a 1:1 ratio, and the mixture was added to wells at 5 μL/well, and incubated at 25° C. for 2 h or more. The plate was read using a PE Envision multi-functional microplate reader (excitation: […], emission: 665 nm) and IC50 (shown in table 1) was calculated by four-parameter fitting.

Another assay relates to RS4;11 cells. Nature of the assay: Inhibitory effect on proliferation of RS4;11 cells (CCK-8). The assay is classed as cell-based, human. Particulars: Homo sapiens, RS4-11, 72 h. Here is the method: Experimental Example 2: Inhibitory Effect of Compounds on Proliferation of RS4;11 Cells
RS4;11 cells (from Nanjing Cobioer) in logarithmic growth phase and good cell condition were added to a centrifuge tube and centrifuged at 1500 rpm for 3 min in a low speed centrifuge. The supernatant was discarded, and 5 mL of complete medium (RPMI basic medium+10 wt % fetal bovine serum (FBS)) was added using a pipette for cell resuspension. The cells were counted using a cell counter, diluted with complete medium to a cell density of 2×10^5 cells/mL, and added with an equivalent amount of RPMI basic medium to adjust the serum concentration to 5% and the cell density to 1×10^5 cells/mL for plate seeding. The cells were seeded on a 96-well plate at 100 μL/well using a pipettor, and incubated in an incubator at 37° C., 5% CO2 with saturated humidity. After 24 h of incubation, compounds were loaded using a nanoliter pipettor, 2 duplicate wells were set for each concentration, and cells without compound were used as negative controls. […] Inhibition rate (%)=(mean value of negative control group—mean value of experimental group)/(mean value of negative control group—mean value of blank group)×100%. A dose-response curve was fitted by four-parameter analysis, with the logarithm of compound concentration serving as abscissa and inhibition rate serving as ordinate, so that IC50 was calculated (FIG. 2).

T2 sequence (P10415 whole entry, species assumed): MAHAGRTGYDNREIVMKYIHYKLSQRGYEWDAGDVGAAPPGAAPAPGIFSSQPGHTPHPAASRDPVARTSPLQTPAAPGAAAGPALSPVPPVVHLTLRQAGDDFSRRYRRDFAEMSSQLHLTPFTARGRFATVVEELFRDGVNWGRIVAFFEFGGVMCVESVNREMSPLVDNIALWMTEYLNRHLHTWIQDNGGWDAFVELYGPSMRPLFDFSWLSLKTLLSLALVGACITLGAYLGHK
T1 sequence (Q07817 whole entry, species assumed): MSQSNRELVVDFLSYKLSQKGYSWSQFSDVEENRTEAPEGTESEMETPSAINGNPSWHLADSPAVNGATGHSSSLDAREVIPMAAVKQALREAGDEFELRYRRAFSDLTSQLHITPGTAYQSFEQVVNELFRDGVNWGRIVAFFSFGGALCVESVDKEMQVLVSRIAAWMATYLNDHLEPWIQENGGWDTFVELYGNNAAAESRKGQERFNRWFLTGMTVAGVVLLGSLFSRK

As to “4-(4-{[2-(2-chloro-4-trifluoromethylphenyl)-4,4-dimethylcyclohex-1-enyl]methyl}-piperazin-1-yl)-N-({3-nitro-4-[(4-((trifluoromethyl) sulfonyl)morpholin-2-yl)methyl)amino]phenyl}sulfonyl)-2-(1H-pyrrolo[2,3-b]pyridin-5-yloxy)-benzamide [Compound 56-1]”, the IC50 was 381 nM on BCL-XL/BAK and 3.55 nM on BCL-2/BAK.
Regarding `CC1(C)CCC(CN2CCN(c3ccc(C(=O)NS(=O)(=O)c4ccc(NCC5CCOCC5)c([N+](=O)[O-])c4)c(Oc4cnc5[nH]ccc5c4)c3)CC2)=C(c2ccc(Cl)cc2C(F)(F)F)C1` [Compound 3-1, 4-(4-{[2-(4-chloro-2-trifluoromethylphenyl)-4,4-dimethylcyclohex-1-enyl]methyl}-piperazin-1-yl)-N-({3-nitro-4-[(tetrahydro-2H-pyran-4-ylmethyl)amino]phenyl}sulfonyl)-2-(1H-pyrrolo[2,3-b]pyridin-5-yloxy)-benzamide], the IC50 at BCL-XL/BAK was over 2000 nM; at BCL-2/BAK, 0.86 nM.
Taken in the same sequence, the figures for `CC1(C)CCC(CN2CCN(c3ccc(C(=O)NS(=O)(=O)c4ccc(NCC5CCOCC5)c([N+](=O)[O-])c4)c(Oc4cnc5[nH]ccc5c4)c3)CC2)=C(c2ccc(C(F)(F)F)c(Cl)c2)C1` [Compound 4-1, 4-(4-{[2-(3-chloro-4-trifluoromethylphenyl)-4,4-dimethylcyclohex-1-enyl]methyl}-piperazin-1-yl)-N-({3-nitro-4-[(tetrahydro-2H-pyran-4-ylmethyl)amino]phenyl}sulfonyl)-2-(1H-pyrrolo[2,3-b]pyridin-5-yloxy)-benzamide] were over 2000 nM and 0.8 nM.
`CC1(C)CCC(CN2CCN(c3ccc(C(=O)NS(=O)(=O)c4ccc(NCCC5CN(S(C)(=O)=O)CCO5)c([N+](=O)[O-])c4)c(Oc4cnc5[nH]ccc5c4)c3)CC2)=C(c2ccc(C(F)(F)F)cc2Cl)C1` (centres unmarked) [Compound 21-1, 4-(4-{[2-(2-chloro-4-trifluoromethylphenyl)-4,4-dimethylcyclohex-1-enyl]methyl}-piperazin-1-yl)-N-({3-nitro-4-[(2-(4-(methylsulfonyl)morpholin-2-yl)ethyl)amino]phenyl}sulfonyl)-2-(1H-pyrrolo[2,3-b]pyridin-5-yloxy)-benzamide]: the IC50 with RS4;11 cells was determined as 4.1 nM; on BCL-2/BAK, 2.4 nM.
For `CCN1CCOCC1CNc1ccc(S(=O)(=O)NC(=O)c2ccc(N3CCN(CC4=C(c5ccc(C(F)(F)F)cc5Cl)CC(C)(C)CC4)CC3)cc2Oc2cnc3[nH]ccc3c2)cc1[N+](=O)[O-]` (centres unmarked) [Compound 24-1, 4-(4-{[2-(2-chloro-4-trifluoromethylphenyl)-4,4-dimethylcyclohex-1-enyl]methyl}-piperazin-1-yl)-N-({3-nitro-4-[((4-ethylmorpholin-3-yl)methyl)amino]phenyl}sulfonyl)-2-(1H-pyrrolo[2,3-b]pyridin-5-yloxy)-benzamide], the figures for the IC50 on BCL-XL/BAK and on BCL-2/BAK were 556 nM and 5.11 nM, respectively.
For `CC1(C)CCC(CN2CCN(c3ccc(C(=O)NS(=O)(=O)c4ccc(NC[C@@H]5CCOC5)c([N+](=O)[O-])c4)c(Oc4cnc5[nH]ccc5c4)c3)CC2)=C(c2ccc(C(F)(F)F)cc2Cl)C1` [Compound 36-1, (S)-4-(4-{[2-(2-chloro-4-trifluoromethylphenyl)-4,4-dimethylcyclohex-1-enyl]methyl}-piperazin-1-yl)-N-({3-nitro-4-[((tetrahydrofuran-3-yl)methyl)amino]phenyl}sulfonyl)-2-(1H-pyrrolo[2,3-b]pyridin-5-yloxy)-benzamide] the same measures were 157 nM and 1.78 nM.
In the case of `CC1(C)CCC(CN2CCN(c3ccc(C(=O)NS(=O)(=O)c4ccc(NC[C@@H]5CCCO5)c([N+](=O)[O-])c4)c(Oc4cnc5[nH]ccc5c4)c3)CC2)=C(c2ccc(C(F)(F)F)cc2Cl)C1` [Compound 37-1, (S)-4-(4-{[2-(2-chloro-4-trifluoromethylphenyl)-4,4-dimethylcyclohex-1-enyl]methyl}-piperazin-1-yl)-N-({3-nitro-4-[((tetrahydrofuran-2-yl)methyl)amino]phenyl}sulfonyl)-2-(1H-pyrrolo[2,3-b]pyridin-5-yloxy)-benzamide], the IC50 is 142 nM at BCL-XL/BAK and 1.59 nM on BCL-2/BAK.
For `CC1(C)CCC(CN2CCN(c3ccc(C(=O)NS(=O)(=O)c4ccc(NCCC5CCCOC5)c([N+](=O)[O-])c4)c(Oc4cnc5[nH]ccc5c4)c3)CC2)=C(c2ccc(C(F)(F)F)cc2Cl)C1` (centres unmarked) [Compound 45-1, 4-(4-{[2-(2-chloro-4-trifluoromethylphenyl)-4,4-dimethylcyclohex-1-enyl]methyl}-piperazin-1-yl)-N-({3-nitro-4-[((2-tetrahydropyran-3-yl)ethyl)amino]phenyl}sulfonyl)-2-(1H-pyrrolo[2,3-b]pyridin-5-yloxy)-benzamide] the same measures were 243 nM and 2.18 nM.
With `CC1(C)CCC(CN2CCN(c3ccc(C(=O)NS(=O)(=O)c4ccc(NCC5CN(C(=O)CC#N)CCO5)c([N+](=O)[O-])c4)c(Oc4cnc5[nH]ccc5c4)c3)CC2)=C(c2ccc(C(F)(F)F)cc2Cl)C1` (centres unmarked) [Compound 51-1, 4-(4-{[2-(2-chloro-4-trifluoromethylphenyl)-4,4-dimethylcyclohex-1-enyl]methyl}-piperazin-1-yl)-N-({3-nitro-4-[((4-(2-cyanoacetyl)morpholin-2-yl)methyl)amino]phenyl}sulfonyl)-2-(1H-pyrrolo[2,3-b]pyridin-5-yloxy)-benzamide], the IC50 in the assay with RS4;11 cells was 1.1 nM; on BCL-2/BAK, 1.9 nM.
For `CN(C)CC(=O)N1CCC(CNc2ccc(S(=O)(=O)NC(=O)c3ccc(N4CCN(CC5=C(c6ccc(C(F)(F)F)cc6Cl)CC(C)(C)CC5)CC4)cc3Oc3cnc4[nH]ccc4c3)cc2[N+](=O)[O-])CC1` [Compound 59-1], the IC50 with RS4;11 cells turned out to be 1 nM; at BCL-2/BAK, 1.1 nM.
As to `CN(C)CC(=O)N1CCCC(CNc2ccc(S(=O)(=O)NC(=O)c3ccc(N4CCN(CC5=C(c6ccc(C(F)(F)F)cc6Cl)CC(C)(C)CC5)CC4)cc3Oc3cnc4[nH]ccc4c3)cc2[N+](=O)[O-])C1` (centres unmarked) [Compound 60-1], the IC50 in the assay on RS4;11 cells came to 1.3 nM; at BCL-2/BAK, 1.1 nM.
For the compound `CC(=O)N1CCO[C@@H](CNc2ccc(S(=O)(=O)NC(=O)c3ccc(N4CCN(CC5=C(c6ccc(C(F)(F)F)cc6Cl)CC(C)(C)CC5)CC4)cc3Oc3cnc4[nH]ccc4c3)cc2[N+](=O)[O-])C1` [Compound 61-1, (S)-4-(4-{[2-(2-chloro-4-trifluoromethylphenyl)-4,4-dimethylcyclohex-1-enyl]methyl}-piperazin-1-yl)-N-({3-nitro-4-[((4-acetylmorpholin-2-yl)methyl)amino]phenyl}sulfonyl)-2-(1H-pyrrolo[2,3-b]pyridin-5-yloxy)-benzamide], the IC50 in the assay with RS4;11 cells is 3.2 nM; at BCL-2/BAK, 1.52 nM.
Turning to `COCC(=O)N1CCOC(CCNc2ccc(S(=O)(=O)NC(=O)c3ccc(N4CCN(CC5=C(c6ccc(C(F)(F)F)cc6Cl)CC(C)(C)CC5)CC4)cc3Oc3cnc4[nH]ccc4c3)cc2[N+](=O)[O-])C1` (centres unmarked) [Compound 72-1, 4-(4-{[2-(2-chloro-4-trifluoromethylphenyl)-4,4-dimethylcyclohex-1-enyl]methyl}-piperazin-1-yl)-N-({3-nitro-4-[(2-(4-(2-methoxyacetyl)morpholin-2-yl)ethyl)amino]phenyl}sulfonyl)-2-(1H-pyrrolo[2,3-b]pyridin-5-yloxy)-benzamide], the half-maximal inhibitory concentration (IC50) at BCL-XL/BAK was determined as 122 nM; at BCL-2/BAK, 2.32 nM.
